Results on one molecule are retold here after paper PMC7614687, “Modulation of the substrate specificity of the kinase PDK1 by distinct conformations of the full-length protein*” (Science signaling, 2023).

Assay [1] deals with T1, PDK1 (Homo sapiens, UniProt O15530).
T1 sequence (O15530 1-556): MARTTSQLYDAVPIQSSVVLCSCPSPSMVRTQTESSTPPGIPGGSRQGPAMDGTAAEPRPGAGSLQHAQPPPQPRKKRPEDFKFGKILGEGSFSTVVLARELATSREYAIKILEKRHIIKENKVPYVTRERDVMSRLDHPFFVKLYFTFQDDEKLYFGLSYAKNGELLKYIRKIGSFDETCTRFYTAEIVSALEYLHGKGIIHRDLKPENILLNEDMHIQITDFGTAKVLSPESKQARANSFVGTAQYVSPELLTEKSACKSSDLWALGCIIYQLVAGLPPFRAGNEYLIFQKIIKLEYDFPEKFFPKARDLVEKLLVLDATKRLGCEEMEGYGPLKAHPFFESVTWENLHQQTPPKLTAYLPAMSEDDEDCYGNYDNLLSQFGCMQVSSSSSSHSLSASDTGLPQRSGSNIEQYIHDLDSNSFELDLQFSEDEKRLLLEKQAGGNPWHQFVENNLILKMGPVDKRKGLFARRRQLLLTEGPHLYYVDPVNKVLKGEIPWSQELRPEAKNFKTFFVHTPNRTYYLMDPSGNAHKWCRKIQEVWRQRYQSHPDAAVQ
Nature of the assay: Thermo Fisher Scientific/Invitrogen PDK1 cascade assay (Akt2 as substrate, no PIP3). It is filed as biochemical. The note with it: 10-point titration. As to the method: To explore the structural basis of this effect, we synthesized additional inositol phosphate derivatives related to IP5 (Fig. 2A). […] The first was Thermo Fisher Scientific/Invitrogen PDK1 cascade assay, which uses Akt as substrate in a coupled, cascade-type assay and in which the activity of PDK1 is measured by its ability to activate Akt. The second was the “PDK1 Direct” assay, which uses a peptide substrate (Ser/Thr 07) of undisclosed sequence (table S1) as the substrate of PDK1 and a readout of FRET between coumarin and fluorescein (5-FAM). […] Scyllo-IP5 and another synthetic derivative of IP5, 2-O-(2-aminoethyl)-IP5 (AMR1474), were weak inhibitors in the same assays (10% or less inhibition at 1 μM) (table S2).
The commercial PDK1 activity assays were provided by Thermo Fisher Scientific as a service. […] The ¨PDK1 Direct¨ biochemical assay measures the phosphorylation of a peptide termed Ser/Thr 07 that is labeled with a donor fluorophore (coumarin) and an acceptor fluorophore (fluorescein) to create a FRET pair. The peptide substrate was first incubated with the kinase and ATP-Mg (25 μM ATP), then non-phosphorylated peptide was cleaved with a protease. The remaining FRET corresponds to the phosphorylated substrate. […]

The next assay deals with T2, PDK1_50-359 (Homo sapiens, UniProt O15530).
T2 construct: His (N); made in house; host or cells: insect cells (stated for the crystallography batch)
T2 sequence (O15530 50-359): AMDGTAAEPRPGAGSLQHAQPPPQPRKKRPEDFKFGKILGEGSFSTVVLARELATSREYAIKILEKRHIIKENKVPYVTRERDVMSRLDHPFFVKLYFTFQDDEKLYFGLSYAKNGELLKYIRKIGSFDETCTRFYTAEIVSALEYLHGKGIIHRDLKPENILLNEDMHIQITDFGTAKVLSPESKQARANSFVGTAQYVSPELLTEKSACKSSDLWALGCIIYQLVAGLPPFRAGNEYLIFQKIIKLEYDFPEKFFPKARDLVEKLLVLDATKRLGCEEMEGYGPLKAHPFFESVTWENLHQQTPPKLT
Description: Differential scanning fluorimetry, thermal stability of PDK1_50-359 (catalytic domain). It is filed as binding. On the procedure:
The thermal stability of PDK1 was assessed by monitoring the unfolding of PDK1 by the increase in the fluorescence of SYPRO Orange (Invitrogen) using a real-time PCR device (StepOnePlus, Applied Biosystems and BioRad CFX96) following a previously described protocol ([70]). The reactions were performed in a final volume of 10 μl in white 96-well PCR microtiter plates (Greiner) and contained 1 μM PDK1, 10 mM HEPES (pH 7.5), 150 mM NaCl, 1/1000 SYPRO Orange and 1 mM dithiothreitol. For valsartan, the assay buffer was modified to exclude NaCl. PIFtide or compounds (at a final DMSO concentration of 1%) were added to this reaction mixture. The temperature gradient was performed in steps of 0.3 °C in the range from 25 to 70 °C. To calculate the Tm values, data were exported to GraphPad Prism and curves fitted to a Boltzmann sigmoidal equation with an acceptable confidence interval of 95%. Statistical analysis was performed with Infostat software (http://www.infostat.com.ar) and GraphPad Prism by first verifying a normal distribution of pooled residuals (Shapiro-Wilks test) and homogeneity of variance (F test), and then performing a one-way ANOVA followed by the post hoc comparisons test indicated in each figure legend.
In general terms: In DSF a fluorescence change marks the thermal transition of the protein.

Assay [2] addresses T1, PDK1. Nature of the assay: PDK1 activity assay with T308tide and [γ32P]ATP. It is filed as biochemical. More on the design: made in house; host or cells: HEK293 (GST fusion) or Sf9 insect cells (His form). The settings on record: full-length PDK1. On the procedure:
The PDK1 activity assay using T308tide as a substrate was performed essentially as previously described ([18], [28], [54]). In brief, the assay was performed in a 20 μl format containing 50 mM Tris pH 7.5, 0.05 mg/ml BSA, 0.1% ß-mercaptoethanol, 10 mM MgCl2, 100 μM [γ^32P]ATP (5-50 cpm/pmol), 0.003% Brij, 150-500 ng PDK1, and T308tide (0.3 mM) at room temperature. The assay was performed in 96 well plated and stopped by the addition of 5 μl of 0.1 % phosphoric acid. 4 μl aliquots were spotted on p81 phosphocellulose papers (Whatmann) using ep motion 5070 (Eppendorf). The phosphocellulose papers were washed in 0.01% phosphoric acid, dried, and exposed using PhosphoImager (FLA-9000 Starion). Data were analyzed with ImageQuant software (Fujifilm). Activity measurements were performed in technical duplicates or triplicates with less than 10% difference between replicates. Experiments were repeated at least twice. The activity measurements of PDK1 towards GS-022 and GS-023 were performed similarly, with the GS-peptides replacing T308tide at the indicated concentrations. GS-022 and GS-023 have features consistent with the loose characteristics disclosed for the peptide Ser/Thr 07, ((R/K)1-3(X)0-2 (S/T) (X)0-2(R/K)1-3, where X is any residue) used by the commercial “PDK1 Direct” assay.

A word on the IC50: it is the concentration at which inhibition is half-maximal. Low readings indicate inhibition by little substance, high ones a need for much substance. For the molecule `O=C(O[C@H]1[C@@H](OP(=O)(O)O)[C@H](OP(=O)(O)O)[C@@H](OP(=O)(O)O)[C@H](OP(=O)(O)O)[C@H]1OP(=O)(O)O)c1ccccc1` [HYG8, 2-O-benzoyl-IP5], at PDK1 [1], the “Hill slope, Cascade” value amounted to 2.19. The molecule also yielded an IC50 against PDK1 [1] (absence of PIP3) of 6.42 nM. For the same molecule, on PDK1_50-359, the “effect on thermal stability of PDK1_50-359 (catalytic domain)” value is “without affecting”. In addition, the “effect on activity of full-length PDK1 toward T308tide” value on PDK1 [2] is reported as “partially inhibited”.
